Data on 5 molecules can be found in patent publication US5998487A, “Anti-inflammatory and antibacterial benzyl phenol agents and their use in oral compositions” (Colgate-Palmolive Company, priority 1998, dated 1999).

Converted amounts (≈) assume the structure as drawn. Like-named read-outs stand apart in the source and are kept apart here.

Series [1] concerns PGE2 production in Human Embryo Palatal Mesenchyme cells (HEPM, ATCC #1486). Description: Inhibition of PGE2 production in IL-1β-stimulated HEPM cells. The series is classed as cell-based. The following applies: for IC50: Homo sapiens, read-out: IC50 Concentration to Inhibit 50% of PGE2. As to the method:
Specifically, Human Embryo Palatal Mesenchyme cells (HEPM, ATCC #1486) cells were grown in high glycose Delbeco's Modified Eagles Medium (DMEM, Gibco/BRL-Life Technologies, Grand Island, N.Y.) containing 10% heat inactivated fetal bovine serum (FBS, Gibco/BRL). The cells were grown at 37° C., 100% humidity, and 10% CO2. Prior to analysis, the cells were subcultured into 24 well plates, to form 12 sets of duplicate cultures, and allowed to become 70-90% confluent. On day one of the experiment, the cells were washed three times with serum free media (containing 0.5% bovine serum albumin, BSA), followed by replacement with BSA containing media alone (the negative control) in the first culture set; media and 1.0 ng/mL IL-1β (the positive control, without any inhibitor) in the second culture set; and media, 1.0 ng/mL IL-1β, and a range of from 0.01 μM to 50 μM of 2-t-butyl-4-(4-t-butylbenzyl)-phenol in the third thru twelfth culture sets. Exposure was for 24 hours at which time the media was removed from each well, the media's pH was adjusted to 3.5 with HCl, and the media was analyzed for PGE2 produced using a PerSeptive Diagnostics TiterFluor PGE2 EIA kit, available from PerSeptive Biosystems, Framingham, Mass. 01701.
Prior to determining the PGE2 inhibitory effect of the 2-t-butyl-4-(4-t-butylbenzyl)-phenol compound of the present invention, the results must be normalized with respect to the number of viable cells in each culture well; more or less cells producing correspondingly more or less PGE2. […] Once dissolved, the spectroscopic absorbance of 100 μl of the isopropanol solution from each culture well was determined at 570 nm. A normalization factor, the cell concentration ratio, was calculated for each culture well, by dividing the absorbance of the particular culture well's isopropanol solution by the average absorbance of the unstimulated negative control set's isopropanol solutions. The PGE2 originally determined for each culture well was then normalized by being […] the cell concentration ratio calculated for that particular culture well. […]

Another series has as its target COX-1 (Ovis aries, UniProt P05979). Description: COX-1 inhibition, oxygen utilization assay. The series is classed as biochemical. The following applies: for IC50: oxygen consumption, read-out: IC50 Conc. to Inhibit 50% of COX-1 Activity. An excerpt:
(§1) The efficacy of the AAB compounds of the present invention as inhibitors of COX-1 and COX-2 enzymes was shown using the oxygen utilization assay described in Dewhirst, Prostaglandins, 22, 209-222 (1980). Varying concentrations of 2-t-butyl-4-(4-t-butylbenzyl)-phenol, a compound of the present invention were selected that inhibit the enzymatic activity from 20% to about 80%, as compared to a positive control, no inhibitor. These varying concentrations of 2-t-butyl-4-(4-t-butylbenzyl)-phenol were independently added to COX-1 and COX-2 enzymes in a closed system, in which the enzymes were reacted in a reaction requiring molecular oxygen. The degree of inhibition of the COX enzyme activity was measured by the reduction in monitored oxygen consumption as a function of time within the closed system. The COX enzyme IC50, concentration of 2-t-butyl-4-(4-t-butylbenzyl)-phenol found to inhibit 50% of the activity of the COX-1 and COX-2 enzymes is recorded in Table II.
(§2) For comparison, the COX enzyme IC50 assay methodology of Example III was repeated using triclosan, an agent known to inhibit PG by inhibiting the production of its COX-1 and COX-2 precursors.

Another series has as its target T1, COX-2 (Homo sapiens, UniProt P35354).
T1 sequence (P35354 18-604): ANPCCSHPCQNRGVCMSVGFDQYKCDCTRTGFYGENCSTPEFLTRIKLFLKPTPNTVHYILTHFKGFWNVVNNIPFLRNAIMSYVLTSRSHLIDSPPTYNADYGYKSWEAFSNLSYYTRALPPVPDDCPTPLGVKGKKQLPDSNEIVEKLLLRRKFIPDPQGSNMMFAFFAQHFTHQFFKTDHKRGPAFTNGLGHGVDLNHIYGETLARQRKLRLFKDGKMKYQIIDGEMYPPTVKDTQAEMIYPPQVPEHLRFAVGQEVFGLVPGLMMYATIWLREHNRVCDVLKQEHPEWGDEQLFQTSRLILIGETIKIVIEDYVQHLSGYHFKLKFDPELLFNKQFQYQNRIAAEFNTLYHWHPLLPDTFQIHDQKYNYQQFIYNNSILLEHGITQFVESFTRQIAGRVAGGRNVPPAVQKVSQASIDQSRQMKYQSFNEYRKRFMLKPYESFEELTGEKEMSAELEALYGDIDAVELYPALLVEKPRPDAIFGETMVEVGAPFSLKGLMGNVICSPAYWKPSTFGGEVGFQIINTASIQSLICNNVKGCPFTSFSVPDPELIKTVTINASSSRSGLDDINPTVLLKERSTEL
Description: COX-2 inhibition, oxygen utilization assay. Type of series: biochemical.
Text: as §1, §2

The subject of another series is A. viscosus. In words: MIC (Minimum Inhibitory Concentration) test. The series is classed as cell-based. The following applies: for MIC: Actinomyces viscosus, read-out: MIC (Bacterial Minimum Inhibitory Concentration). The procedure: The smaller the MIC, the greater the antibacterial activity of the compound being tested.
Using a 96 well microtiter plate, a 100 μl of trypticase soy broth (TSB) media, available from BBL, Cockeysville, Md. 21030, was placed in each of the 12 columns within the plate. Using a octapette pipettor, the 2-t-butyl-4-(4-t-butylbenzyl)-phenol compound was serially diluted to each of the 12 columns, from 125 ppm in the first well of each column, to 0.061 ppm in the 12th (each column containing 1/2 the concentration of 2-t-butyl-4-(4-t-butylbenzyl)-phenol compound than the previous column). To each of the 12 columns an additional 100 μl of TBS was added containing A. viscosus bacterium, a common oral bacteria, at a concentration optical density of 0.1, at 610 nm. The plate was then sealed and incubated for 24 hours at 37° C.
The procedure of Example IV was simultaneously run with water as a negative control and using a known efficacious antibacterial agent, triclosan, as a comparative and positive control. The MIC determined for the triclosan is also recorded in Table III for comparative purposes.

Another series concerns cyclooxygenase. Conditions: EP 0 528 468 A1; cited from earlier work.
The subject of another series is microbial challenge. Conditions: EP 0 528 468 A1; cited from earlier work.
Another series has as its system caries. The following applies: hamsters; Stralfors 1967; cited from earlier work.

Sequence of COX-1 (P05979 25-600): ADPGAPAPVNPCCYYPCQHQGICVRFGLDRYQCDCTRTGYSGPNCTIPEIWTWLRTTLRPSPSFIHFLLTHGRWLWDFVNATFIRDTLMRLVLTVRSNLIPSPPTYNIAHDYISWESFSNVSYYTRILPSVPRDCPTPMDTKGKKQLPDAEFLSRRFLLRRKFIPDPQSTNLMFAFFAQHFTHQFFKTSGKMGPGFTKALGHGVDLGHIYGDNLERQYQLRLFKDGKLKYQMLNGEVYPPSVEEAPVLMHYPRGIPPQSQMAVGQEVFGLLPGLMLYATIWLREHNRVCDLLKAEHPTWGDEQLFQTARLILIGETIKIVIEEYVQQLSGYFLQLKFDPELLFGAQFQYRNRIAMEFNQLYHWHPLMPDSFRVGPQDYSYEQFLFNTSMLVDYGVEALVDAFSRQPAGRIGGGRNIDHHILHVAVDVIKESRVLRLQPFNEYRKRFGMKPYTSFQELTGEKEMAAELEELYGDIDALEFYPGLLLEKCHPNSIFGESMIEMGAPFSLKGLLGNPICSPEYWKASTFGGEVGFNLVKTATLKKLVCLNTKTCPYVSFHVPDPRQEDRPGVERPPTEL

With `Oc1cc(Cl)ccc1Oc1ccc(Cl)cc1Cl` [Triclosan, 2',4,4'-trichloro-2-hydroxy-diphenyl-ether], the values for the IC50 (in series [1] (24 h); at COX-1; on COX-2) were 7 µM, 43 µM and 229 µM, respectively. Further, the MIC in the series with A. viscosus (24 h) is 3.61 µg/mL (≈ 12.5 µM). Also, in the series with cyclooxygenase, the “inhibition of cyclooxygenase activity” value is recorded as “inhibits cyclooxygenase activity”. The “reduction of microbial challenge” value in the series with microbial challenge is given as “reduces microbial challenge”.
On to `O=C(O)c1ccc(O)c(O)c1` [protocatechuic acid, 3,4-dihydroxybenzoic acid], for which, in the series with caries, the adverse weight loss entry is “without adverse weight loss” and the inhibition of caries entry is on record as “inhibit caries”.
`O=C(O)C=Cc1ccc(O)c(O)c1` [caffeic acid, 3,4-dihydroxycinnamic acid]: in the series on caries, the adverse weight loss result is on record as “without adverse weight loss” and the inhibition of caries entry is given as “inhibit caries”.
For `CC(C)(C)c1ccc(Cc2ccc(O)c(C(C)(C)C)c2)cc1` [2-t-butyl-4-(4-t-butylbenzyl)-phenol], the IC50 in series [1] (HEPM cells, 1.0 ng/mL IL-1β, 24 hours, normalized to viable cells (MTT)) is 3.7 µM; on COX-1, 17.4 µM; at COX-2 (oxygen consumption, read-out: IC50 Conc. to Inhibit 50% of COX-2 Activity), 100 µM. Besides, the “efficacy as PGE2 inhibitor relative to triclosan” value in series [1] (vs triclosan, from Table I) is around 2 times. For the same molecule, on COX-1 (vs triclosan, from Table II), the “efficacy as COX-1 inhibitor relative to triclosan” value was “over 2 times”. The “efficacy as COX-2 inhibitor relative to triclosan” value on COX-2 (vs triclosan, from Table II) is listed as “over 2 times”. Further, the MIC with A. viscosus (A. viscosus, TSB, 24 hours, 37° C.) is 0.24 µg/mL (≈ 0.81 µM). Besides, the “MIC relative to that of triclosan” value in the series with A. viscosus (vs triclosan, from Table III) is given as “about 7%”.
In the case of `O=c1c(O)c(-c2ccc(O)c(O)c2)oc2cc(O)cc(O)c12` [quercetin, pentahydroxyflavone], the adverse weight loss result in the series on caries is recorded as “without adverse weight loss”.
